Data on six compounds can be found in US12139520B2 (priority 2020, dated 2024).

For one experiment, the target named is T1, hAMY3 receptor (Homo sapiens, UniProt O60896+P30988).
T1 sequence (P30988 25-474): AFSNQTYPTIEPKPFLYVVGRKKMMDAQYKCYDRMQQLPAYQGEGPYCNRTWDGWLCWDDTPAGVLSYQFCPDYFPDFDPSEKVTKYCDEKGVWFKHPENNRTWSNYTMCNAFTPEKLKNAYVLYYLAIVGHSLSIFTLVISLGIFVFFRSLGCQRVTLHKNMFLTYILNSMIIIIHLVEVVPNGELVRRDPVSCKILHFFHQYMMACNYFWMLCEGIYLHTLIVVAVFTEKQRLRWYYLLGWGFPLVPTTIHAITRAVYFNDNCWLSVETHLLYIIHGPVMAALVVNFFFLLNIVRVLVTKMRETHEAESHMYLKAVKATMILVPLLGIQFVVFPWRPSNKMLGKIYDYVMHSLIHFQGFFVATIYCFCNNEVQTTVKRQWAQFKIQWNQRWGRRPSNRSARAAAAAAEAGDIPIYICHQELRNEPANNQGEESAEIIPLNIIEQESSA
T1 sequence (O60896 24-148 partner): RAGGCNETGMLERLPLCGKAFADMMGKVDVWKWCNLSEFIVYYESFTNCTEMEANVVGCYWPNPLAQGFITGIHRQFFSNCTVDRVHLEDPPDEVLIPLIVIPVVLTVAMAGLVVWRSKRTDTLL
The experiment is described as follows: cAMP assay for in vitro receptor activation, hAMY3-R. The experiment is classed as cell-based. Particulars: cAMP assay, hAMY3 receptor; read-out: hAMY3R EC50. A digest of the protocol:
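Accumulated cAMP was detected by time-resolved FRET one hour after reagent addition. Beforehand, hAMY3-R-overexpressing monoclonal cells (2000/well, DPBS, 0.05% casein, 0.5 mM IBMX) received graded doses of compound for 30 min at room temperature; human amylin served as positive control.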
In general terms: cAMP levels reflect the balance of adenylyl cyclase and phosphodiesterase activity.

For the next experiment, the target named is hAM1 receptor (Homo sapiens, UniProt O60895+Q16602). The experiment is described as follows: cAMP assay for in vitro receptor activation, hAM1-R. In kind it is cell-based. Particulars: cAMP assay, hAM1 receptor; read-out: hAM1R EC50. A digest of the protocol: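 Monoclonal stable hAM1-overexpressing cells, thawed from frozen stock; 8000 cells/well in DPBS + 0.05% casein + 0.5 mM IBMX; read-out cAMP.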

Numbered stars: 1 amine (or outer) side, 2 acyl side, 3 side chain; on linkers, the order of the positions; unused ones are H or OH. Bridge positions count the residues as written; N and C are the ends. Square brackets hold non-standard residues; d marks the D form. Peptide text beside a SMILES is read from it. * marks the point of attachment. C20 diacid = O=C(O)CCCCCCCCCCCCCCCCCCC(=O)*; γGlu = O=C(O)[C@H](CCC(=O)[*:2])N[*:1]; Hyp = O=C(O)[C@@H]1C[C@@H](O)CN1

hAM1 receptor, sequence (Q16602 23-461): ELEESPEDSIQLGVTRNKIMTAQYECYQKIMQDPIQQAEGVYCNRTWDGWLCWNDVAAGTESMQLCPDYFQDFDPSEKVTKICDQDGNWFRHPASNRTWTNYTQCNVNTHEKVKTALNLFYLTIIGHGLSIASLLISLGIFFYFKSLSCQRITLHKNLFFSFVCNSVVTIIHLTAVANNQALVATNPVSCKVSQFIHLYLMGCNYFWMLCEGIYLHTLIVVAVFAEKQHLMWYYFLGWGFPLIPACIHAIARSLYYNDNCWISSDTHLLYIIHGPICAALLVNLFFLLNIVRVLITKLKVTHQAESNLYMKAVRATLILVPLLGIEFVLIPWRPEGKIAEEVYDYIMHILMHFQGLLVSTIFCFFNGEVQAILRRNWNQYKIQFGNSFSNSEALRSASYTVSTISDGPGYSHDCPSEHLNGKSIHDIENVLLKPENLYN
hAM1 receptor, sequence (O60895 43-175 partner): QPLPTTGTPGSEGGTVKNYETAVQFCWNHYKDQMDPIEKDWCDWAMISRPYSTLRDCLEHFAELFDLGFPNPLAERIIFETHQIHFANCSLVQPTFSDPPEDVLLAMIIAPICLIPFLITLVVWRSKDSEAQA

For the compound `CC[C@H](C)[C@H](NC(=O)[C@H](CCC(N)=O)NC(=O)[C@H](CCC(=O)O)NC(=O)[C@H](C)NC(=O)[C@H](CC(C)C)NC(=O)[C@H](CCCNC(=N)N)NC(=O)[C@H](CCC(N)=O)NC(=O)[C@@H](NC(=O)[C@@H](NC(=O)[C@@H]1CSSC[C@H](NC(=O)[C@@H](N)CCCCN)C(=O)N[C@@H](CC(N)=O)C(=O)N[C@@H](C)C(=O)N[C@@H](C)C(=O)N[C@@H]([C@@H](C)O)C(=O)N1)[C@@H](C)O)C(C)C)C(=O)N[C@@H](Cc1ccc(O)cc1)C(=O)N[C@@H](CCC(N)=O)C(=O)N[C@@H](Cc1ccccc1)C(=O)N[C@H](C(=O)N[C@@H](CC(=O)O)C(=O)N[C@@H](CCCCN)C(=O)N[C@@H](CC(=O)O)C(=O)N[C@@H](CCCCN)C(=O)N[C@@H](CC(=O)O)C(=O)N[C@@H](CC(N)=O)C(=O)N[C@H](C(=O)N[C@@H](C)C(=O)N1CCC[C@H]1C(=O)N1CCC[C@H]1C(=O)N[C@H](C(=O)N[C@@H](CC(N)=O)C(=O)N[C@H](C(=O)NCC(=O)N[C@@H](CO)C(=O)N[C@@H](CC(N)=O)C(=O)NCC(=O)N1C[C@H](O)C[C@H]1C(N)=O)C(C)C)[C@@H](C)O)C(C)C)[C@@H](C)O` [compound 101] (H-KCNAATCTVQRLAEQIYQFTDKDKDNVAPPTNVGSNG[Hyp]-NH2; disulfide 2-7; N-terminus assumed), the EC50 (usually the concentration needed to bring the measured effect to its halfway point) at hAMY3 receptor is 0.017 nM; at hAM1 receptor, more than 5000 nM.
Consider `CC[C@H](C)[C@H](NC(=O)[C@H](CCC(N)=O)NC(=O)[C@H](Cc1c[nH]cn1)NC(=O)[C@H](C)NC(=O)[C@H](CC(C)C)NC(=O)[C@H](CCCNC(=N)N)NC(=O)[C@H](CCC(N)=O)NC(=O)[C@@H](NC(=O)[C@@H](NC(=O)[C@@H]1CSSC[C@H](NC(=O)[C@@H](N)CCCCN)C(=O)N[C@@H](CC(N)=O)C(=O)N[C@@H]([C@@H](C)O)C(=O)N[C@@H](C)C(=O)N[C@@H]([C@@H](C)O)C(=O)N1)[C@@H](C)O)C(C)C)C(=O)N[C@@H](Cc1ccc(O)cc1)C(=O)N[C@@H](CCC(N)=O)C(=O)N[C@@H](Cc1ccccc1)C(=O)N[C@H](C(=O)N[C@@H](CC(=O)O)C(=O)N[C@@H](CCCCN)C(=O)N[C@@H](CC(=O)O)C(=O)N[C@@H](CCCCN)C(=O)N[C@@H](CC(=O)O)C(=O)N[C@@H](CC(N)=O)C(=O)N[C@H](C(=O)N[C@@H](C)C(=O)N1CCC[C@H]1C(=O)N[C@@H](CCCNC(=N)N)C(=O)N[C@H](C(=O)N[C@@H](CCC(=O)O)C(=O)N[C@H](C(=O)NCC(=O)N[C@@H](CO)C(=O)N[C@@H](CC(N)=O)C(=O)NCC(=O)N[C@@H](Cc1ccc(O)cc1)C(N)=O)C(C)C)[C@@H](C)O)C(C)C)[C@@H](C)O` [compound 102] (H-KCNTATCTVQRLAHQIYQFTDKDKDNVAPRTEVGSNGY-NH2; disulfide 2-7; N-terminus assumed), for which the EC50 at hAMY3 receptor is 0.018 nM; at hAM1 receptor, more than 5000 nM.
Regarding `CC[C@H](C)[C@H](NC(=O)[C@H](CCC(N)=O)NC(=O)[C@H](Cc1c[nH]cn1)NC(=O)[C@H](C)NC(=O)[C@H](CC(C)C)NC(=O)[C@H](CCCNC(=N)N)NC(=O)[C@@H](NC(=O)[C@@H](NC(=O)[C@@H](NC(=O)[C@@H]1CSSC[C@H](NC(=O)[C@H](CCCCN)NC(=O)CC[C@H](NC(=O)CCCCCCCCCCCCCCCCCCC(=O)O)C(=O)O)C(=O)N[C@@H](CC(N)=O)C(=O)N[C@@H]([C@@H](C)O)C(=O)N[C@@H](C)C(=O)N[C@@H]([C@@H](C)O)C(=O)N1)[C@@H](C)O)C(C)C)C(C)C)C(=O)N[C@@H](Cc1ccc(O)cc1)C(=O)N[C@@H](CCC(N)=O)C(=O)N[C@@H](Cc1ccccc1)C(=O)N[C@H](C(=O)N[C@@H](CC(=O)O)C(=O)N[C@@H](CCCCN)C(=O)N[C@@H](CC(=O)O)C(=O)N[C@@H](CCCCN)C(=O)N[C@@H](CC(=O)O)C(=O)N[C@@H](CC(N)=O)C(=O)N[C@H](C(=O)N[C@@H](C)C(=O)N1CCC[C@H]1C(=O)N1CCC[C@H]1C(=O)N[C@H](C(=O)N[C@@H](CC(N)=O)C(=O)N[C@H](C(=O)NCC(=O)N[C@@H](CO)C(=O)N[C@@H](CC(N)=O)C(=O)NCC(=O)N1C[C@H](O)C[C@H]1C(N)=O)C(C)C)[C@@H](C)O)C(C)C)[C@@H](C)O` [compound 103] ({C20 diacid-γGlu}-KCNTATCTVVRLAHQIYQFTDKDKDNVAPPTNVGSNG[Hyp]-NH2; disulfide 2-7), the EC50 on hAMY3 receptor is 0.018 nM; at hAM1 receptor it was more than 5000 nM.
For `CC[C@H](C)[C@H](NC(=O)[C@H](CCC(N)=O)NC(=O)[C@H](Cc1c[nH]cn1)NC(=O)[C@H](C)NC(=O)[C@H](CC(C)C)NC(=O)[C@H](CCCNC(=N)N)NC(=O)[C@H](CCC(N)=O)NC(=O)[C@@H](NC(=O)[C@@H](NC(=O)[C@@H]1CSSC[C@H](NC(=O)[C@H](CCCCN)NC(=O)CC[C@H](NC(=O)CCCCCCCCCCCCCCCCCCC(=O)O)C(=O)O)C(=O)N[C@@H](CC(N)=O)C(=O)N[C@@H]([C@@H](C)O)C(=O)N[C@@H](C)C(=O)N[C@@H]([C@@H](C)O)C(=O)N1)[C@@H](C)O)C(C)C)C(=O)N[C@@H](Cc1ccc(O)cc1)C(=O)N[C@@H](CCC(N)=O)C(=O)N[C@@H](Cc1ccccc1)C(=O)N[C@@H](Cc1ccc(O)cc1)C(=O)N[C@@H](CC(=O)O)C(=O)N[C@@H](CCCCN)C(=O)N[C@@H](CC(=O)O)C(=O)N[C@@H](CCCCN)C(=O)N[C@@H](CC(=O)O)C(=O)N[C@@H](CC(N)=O)C(=O)N[C@H](C(=O)N[C@@H](C)C(=O)N1CCC[C@H]1C(=O)N1CCC[C@H]1C(=O)N[C@H](C(=O)N[C@@H](CC(N)=O)C(=O)N[C@H](C(=O)NCC(=O)N[C@@H](CO)C(=O)N[C@@H](CC(N)=O)C(=O)NCC(=O)N1C[C@H](O)C[C@H]1C(N)=O)C(C)C)[C@@H](C)O)C(C)C` [compound 104] ({C20 diacid-γGlu}-KCNTATCTVQRLAHQIYQFYDKDKDNVAPPTNVGSNG[Hyp]-NH2; disulfide 2-7), in that order: 0.018 nM and more than 5000 nM.
For `CC[C@H](C)[C@H](NC(=O)[C@H](CCC(N)=O)NC(=O)[C@H](Cc1c[nH]cn1)NC(=O)[C@H](C)NC(=O)[C@H](CC(C)C)NC(=O)[C@H](CCCNC(=N)N)NC(=O)[C@H](CCC(N)=O)NC(=O)[C@@H](NC(=O)[C@@H](NC(=O)[C@@H]1CSSC[C@H](NC(=O)[C@H](CCCCN)NC(=O)CC[C@H](NC(=O)CCCCCCCCCCCCCCCCCCC(=O)O)C(=O)O)C(=O)N[C@@H](CC(N)=O)C(=O)N[C@@H]([C@@H](C)O)C(=O)N[C@@H](C)C(=O)N[C@@H]([C@@H](C)O)C(=O)N1)[C@@H](C)O)C(C)C)C(=O)N[C@@H](C)C(=O)N[C@@H](CCC(N)=O)C(=O)N[C@@H](Cc1ccccc1)C(=O)N[C@@H](C)C(=O)N[C@@H](CC(=O)O)C(=O)N[C@@H](CCCCN)C(=O)N[C@@H](CC(=O)O)C(=O)N[C@@H](CCCCN)C(=O)N[C@@H](CC(=O)O)C(=O)N[C@@H](CC(N)=O)C(=O)N[C@H](C(=O)N[C@@H](C)C(=O)N1CCC[C@H]1C(=O)N1CCC[C@H]1C(=O)N[C@H](C(=O)N[C@@H](CC(N)=O)C(=O)N[C@H](C(=O)NCC(=O)N[C@@H](CO)C(=O)N[C@@H](CC(N)=O)C(=O)NCC(=O)N1C[C@H](O)C[C@H]1C(N)=O)C(C)C)[C@@H](C)O)C(C)C` [compound 105] ({C20 diacid-γGlu}-KCNTATCTVQRLAHQIAQFADKDKDNVAPPTNVGSNG[Hyp]-NH2; disulfide 2-7), in that order: 0.018 nM and more than 5000 nM.
For `CC[C@H](C)[C@H](NC(=O)[C@H](CCC(N)=O)NC(=O)[C@H](CCC(=O)O)NC(=O)[C@H](C)NC(=O)[C@H](CC(C)C)NC(=O)[C@H](CCCNC(=N)N)NC(=O)[C@H](CCC(N)=O)NC(=O)[C@@H](NC(=O)[C@@H](NC(=O)[C@@H]1CSSC[C@H](NC(=O)[C@H](CCCCN)NC(=O)CC[C@H](NC(=O)CCCCCCCCCCCCCCCCCCC(=O)O)C(=O)O)C(=O)N[C@@H](CC(N)=O)C(=O)N[C@@H]([C@@H](C)O)C(=O)N[C@@H](C)C(=O)N[C@@H]([C@@H](C)O)C(=O)N1)[C@@H](C)O)C(C)C)C(=O)N[C@@H](Cc1ccc(O)cc1)C(=O)N[C@@H](CCC(N)=O)C(=O)N[C@@H](Cc1ccccc1)C(=O)N[C@H](C(=O)N[C@@H](C)C(=O)N[C@@H](CCCCN)C(=O)N[C@@H](CC(=O)O)C(=O)N[C@@H](CCCCN)C(=O)N[C@@H](CC(=O)O)C(=O)N[C@@H](CC(N)=O)C(=O)N[C@H](C(=O)N[C@@H](C)C(=O)N1CCC[C@H]1C(=O)N1CCC[C@H]1C(=O)N[C@H](C(=O)N[C@@H](CC(N)=O)C(=O)N[C@H](C(=O)NCC(=O)N[C@@H](CO)C(=O)N[C@@H](CC(N)=O)C(=O)NCC(=O)N1C[C@H](O)C[C@H]1C(N)=O)C(C)C)[C@@H](C)O)C(C)C)[C@@H](C)O` [compound 106] ({C20 diacid-γGlu}-KCNTATCTVQRLAEQIYQFTAKDKDNVAPPTNVGSNG[Hyp]-NH2; disulfide 2-7), in that order: 0.018 nM and more than 5000 nM.
